Consider 5 compounds from the NIST ThermoML archive (doi:10.1021/acs.jced.6b00695).

Numbers after ± are expanded uncertainties.

The data set can be described thus: mn = molality of the nth substance listed, in mol/kg. To be noted: for mass density / viscosity / speed of sound: 100 kPa, Liquid; for mass density: Vibrating tube method; for surface tension liquid-gas: Capillary rise; for viscosity: Capillary tube (Ostwald / Ubbelohde) method; for speed of sound: Sing-around technique in a fixed-path interferometer.

What is called mass density is the mass of a sample divided by its volume. On to `[Cl][Yb]([Cl])[Cl]` [ytterbium trichloride] + O, for which, where the note is “298.15 K, m1 = 0.005”, the mass density was 998.121 ± 0.05 kg/m3.
For orientation: surface tension liquid-gas means the work needed to enlarge the surface of a liquid by unit area. By viscosity is commonly meant the internal friction of a fluid under shear. For orientation: speed of sound means how fast a sound wave travels through the sample. As to `O=C(O)CC(O)(CC(=O)O)C(=O)O` [citric acid] + O, where the note is “298.15 K, m1 = 0.005”, the surface tension liquid-gas stood at 71.6 ± 0.69 mN/m, the viscosity turned out to be 0.9011 ± 0.0069 mPa·s, the speed of sound came out at 1494.6 ± 0.86 m/s and the mass density was 997.455 ± 0.05 kg/m3. Also, for the setting “303.15 K, m1 = 0.005”, the surface tension liquid-gas is 70.84 ± 0.69 mN/m, the viscosity is 0.8009 ± 0.0066 mPa·s, the speed of sound is 1504.7 ± 0.86 m/s and the mass density was 996.059 ± 0.045 kg/m3. Also, for the setting “308.15 K, m1 = 0.005”, the surface tension liquid-gas stood at 70.06 ± 0.69 mN/m, the viscosity came to 0.7225 ± 0.0063 mPa·s, the speed of sound is on record as 1516.2 ± 0.87 m/s and the mass density is recorded as 994.427 ± 0.051 kg/m3.
As for `[Cl][Er]([Cl])[Cl]` [erbium trichloride] + O, the mass density (298.15 K, m1 = 0.005) worked out at 998.051 ± 0.05 kg/m3.
For the compound `OC[C@H]1O[C@@](CO)(O[C@H]2O[C@H](CO)[C@@H](O)[C@H](O)[C@H]2O)[C@@H](O)[C@@H]1O` [D-sucrose] + O, under “298.15 K, m1 = 1.27”, the surface tension liquid-gas is 42.79 ± 0.7 mN/m, the viscosity is reported as 2.727 ± 0.018 mPa·s, the speed of sound turned out to be 1607.8 ± 1.1 m/s and the mass density was 1127.29 ± 0.25 kg/m3. Where the note is “303.15 K, m1 = 1.27”, the surface tension liquid-gas is 42.13 ± 0.7 mN/m, the viscosity is 2.386 ± 0.016 mPa·s, the speed of sound is on record as 1615.4 ± 1.1 m/s and the mass density was found to be 1125.29 ± 0.25 kg/m3. In addition, for the setting “308.15 K, m1 = 1.27”, the surface tension liquid-gas is given as 40.87 ± 0.7 mN/m, the viscosity was found to be 2.085 ± 0.014 mPa·s, the speed of sound is listed as 1621.8 ± 1.1 m/s and the mass density worked out at 1123.11 ± 0.25 kg/m3.
`[Cl][Dy]([Cl])[Cl]` [dysprosium(III) chloride] + O: the mass density (298.15 K, m1 = 0.005) was 998.006 ± 0.05 kg/m3.
